These are literature values, as cited in US20180169172A1, “COMPOUND AND METHOD FOR REDUCING APPETITE, FATIGUE AND PAIN” (priority 2018, published 2018).

One data set has as its system mice. The note with it: even upon oral administration.
The target of data set [1] is μ-subtype opioid receptor (MOR) (Homo sapiens, UniProt P35372).
The next data set has as its system gastrointestinal transit. To be noted: subcutaneous, mice.
The next data set concerns pain. The note with it: by mouth, immediate-release formulation.
The conditions of data set [2]: microplate reader determination.
Test in data set [3]: not given
This is another data set of the same source.

Test in data set [4]: not given
This is another data set of the same source.

Test in data set [5]: not given
This is another data set of the same source.

A further data set deals with rodents. The note with it: dose levels of 800-900 mg/kg in rodents.
The test system of a further data set is rats. To be noted: 200 mg/kg in rats; mitragynine given orally.
The test system of another data set is Kratom users. To be noted: even after chronic and high dosage consumption.
For another data set, the system named is animal. The note with it: animal studies, versus codeine.
The next data set concerns skeletal muscle. The note with it: rat, in vivo.
For data set [6], the system named is compound nerve action potential. The note with it: 2 mg/mL.
Setting [7] is: nine subjects, oral Kratom tea, loading dose.

SMILES strings stand for the structures. Read-outs that look alike come from different tables or passages of the source. Where only a bound is given, the exact number is not on record here.

Chain of μ-subtype opioid receptor (MOR) (P35372 whole entry): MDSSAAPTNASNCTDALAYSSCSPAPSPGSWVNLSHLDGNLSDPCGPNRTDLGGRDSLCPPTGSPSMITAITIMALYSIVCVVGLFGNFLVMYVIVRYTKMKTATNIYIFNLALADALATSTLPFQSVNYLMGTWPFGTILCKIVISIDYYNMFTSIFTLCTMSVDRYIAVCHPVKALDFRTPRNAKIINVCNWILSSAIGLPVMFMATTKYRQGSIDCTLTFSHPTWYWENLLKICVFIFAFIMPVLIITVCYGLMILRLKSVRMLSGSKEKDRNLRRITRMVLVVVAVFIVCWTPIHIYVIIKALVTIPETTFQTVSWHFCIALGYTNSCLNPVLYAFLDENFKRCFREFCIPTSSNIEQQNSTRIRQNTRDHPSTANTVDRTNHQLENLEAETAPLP

For `CC[C@@H]1CN2CC[C@@]3(O)C(=Nc4cccc(OC)c43)[C@@H]2C[C@@H]1/C(=C\OC)C(=O)OC` [7-hydroxymitragynine, (αE,2S,3S,7aS,12bS)-3-ethyl-1,2,3,4,6,7,7a,12b-octahydro-7a-hydroxy-8-methoxy-α-(methoxymethylene)-indolo [2,3-a]quinolizine-2-acetic acid methyl ester], in the data set with mice, the “analgesic potency relative to morphine” value was “several times more potent analgesic than morphine”. Further, the “agonism at μ-subtype opioid receptor” value in [1] was “selective and full agonists”. Also, in the data set with gastrointestinal transit, the gastrointestinal transit entry is recorded as “caused an inhibition”.
For the compound `COc1cccc(C2(O)CCCCC2CN(C)C)c1` (stereo not shown) [Tramadol, tramadol], the “onset of pain relief” value in the data set on pain was “within an hour”.
For `CC[C@@H]1CN2CCc3c([nH]c4cccc(OC)c34)[C@@H]2C[C@@H]1/C(=C\OC)C(=O)OC` [mitragynine, (αE,2S,3S,12bS)-3-ethyl-1,2,3,4,6,7,12,12b-octahydro-8-methoxy-α-(methoxymethylene)-indolo[2,3-a]quinolizine-2-acetic acid methyl ester], the logP was 1.73. In addition, the pKa in data set [2] was 8.08±0.04. Besides, the stability in acid result in data set [3] (acidic environments) was “acid labile”. For the same compound, the water solubility in [3] (water) is < 100 µg/mL. The solubility result in [3] (water and basic media) was “poor solubility in water and basic media”. Further, in data set [4] (simulated gastric fluid (SGF)), the “total drug release in dissolution” value is given as “higher”. In addition, the “total drug release in dissolution” value in data set [4] (simulated intestinal fluid (SIF)) is “prolonged and incomplete”. Further, in data set [5] (24-hour period), the “urine excretion of unchanged form” value is on record as 0.14%. Moreover, in data set [5] (setting [7]), the “apparent volume of distribution” value was 38.04 ± 24.32 L/kg, the terminal half-life is 23.24 ± 16.07 h and the “time to reach the maximum plasma concentration” value is 0.83 ± 0.35 h. Also, the toxicity entry with rodents was “no toxicity”. For the same compound, the lethality result in the data set on rats is on record as “lethal effects”. For the same compound, the “mortalities following consumption alone” value in the data set on Kratom users was “no reports of mortalities”. The “agonism at μ-subtype opioid receptor” value in data set [1] was “selective and full agonists”. In addition, in the data set on animal, the antinociceptive effect entry was “comparable to those of codeine” and the cough-suppressant effect result was “comparable to those of codeine”. The skeletal muscle relaxation entry in the data set with skeletal muscle is “produced skeletal muscle relaxation”. The “nerve conduction, amplitude and duration of compound nerve action potential” value in data set [6] is “blocked”. Besides, in the data set with gastric acid secretion (administration into fourth ventricle of anesthetized rats, reversed by naloxone), the “2-deoxy-D-glucose-stimulated gastric acid secretion” value is “inhibition”. Further, the “basal gastric acid secretion” value in the data set with gastric acid secretion (administration into the lateral ventricle) is “did not alter”.

As a reminder, the pKa is the pH at which an ionisable group is half protonated. Broadly, the logP is a log measure of how a compound divides between an organic and an aqueous phase.
